In experiment [1] the test system is contact dermatitis induced by picryl chloride. In words: Effect on contact dermatitis induced by picryl chloride in mice. In kind it is in vivo. As to conditions: for Inhibition (%) against the increase of ear thickness / inhibition in vivo at 50 mg/kg: 50 mg/kg oral, 1 hour before and 16 hours after challenge, 24 hours after challenge. The protocol:
Effect on contact dermatitis induced by picryl chloride in mice
The delayed type hypersensitization is inhibited by steroid drugs,but can not be effected by known anti-allergic agents. In the following, the method of the pharmacological test will be explained.
Method: Mice, shaved their abdominal skin on previous day, were immunized by applying 0.1 ml of acetone containing 7 mg of picryl chloride to the skin of the abdomen. 7 days after immunization, the thickness of the ear was measured with a dial thickness gauge, then mice were challenged by painting 5 μl of 1% picryl chloride olive oil solution to each side skin of left ear. 24 hours after challenge, the thickness of the left ear was measured again and the increase (%) of thickness was calculated according to equation 2. The compounds of the present invention (test compounds) suspended in 0.5% CMCNa were forcibly administered orally at a dose of 50 mg/kg at 1 hour before and 16 hours after challenge. As vehicle control group, only 0.5% CMCNa solution were administered orally, and as positive control group, Prednisolone, steroid hormone, and Tranilast were administered orally at the doses of 10 mg/kg and 100 mg/kg, respectively.
Increase (%)=(A-B)/B×100 (Equation 2)
A: thickness of the ear at 24 hours after challenge
B: thickness of the ear before challenge
Inhibition (%)=(C-D)/C×100 (equation 3)
C: The increase (%) in vehicle control group
D: The increase (%) in test compounds group or positive control group

The subject of experiment [2] is experimental asthma model (airway resistance). In words: Effect on experimental asthma model in guinea pigs (airway resistance). In kind it is in vivo, guinea pigs (male hartley). As to conditions: for Inhibition (%) of the airway resistance / inhibition in vivo at 50 mg/kg: 50 mg/kg oral (TABLE 6); for inhibition in vivo at 50 mg/kg: po. As for the experimental part:
Effect on experimental asthma model in guinea pigs
The asthma is typical allergic disease and we carried out this pharmacological test by well known experimental asthma model in guinea pigs in order to comfirm that the compounds of the present invention suppress the asthma. In the following, the method of the pharmacological test will be explained.
Method: Male hartley guinea pigs were immunized by intraperitoneal injection of saline (1ml) containing 5 mg of ovalbumine (OVA) three times at interval of one week. 2 weeks after final immunization, the animals were challenged by inhalation of 1% OVA-saline solution for 1 minute and then the airway resistance of the animals were measured for 30 minutes with PULMOS-1 (Medical Interface Project Station Inc.) after the inhalation. The compounds of the present invention (test compounds) suspended in 0.5% CMCNa were given orally at a dose of 50 mg/kg. As positive control group, Disodium Cromoglicate (DSCG), well known anti-allergic agent, in saline were injected at a dose of 20 mg/kg into the vein of the animals. As vehicle control group, only 0.5% CMCNa solution were given orally. The inhibition (%) of the airway resistance in vehicle control group was calculated according to equation 5 and the result was shown in TABLE 6. Each experimental group consisted of 5 guinea pigs. [formula]
A: Maximum airway resistance in vehicle control group
B: Maximum airway resistance in test compounds group or positive control group

Experiment [3] deals with homologous passive cutaneous anaphylaxis (PCA) reaction. In words: Effect on homologous passive cutaneous anaphylaxis (PCA) reaction in rats. The experiment is classed as in vivo, rats (male wistar). As to conditions: for Inhibition (%) of PCA reaction / inhibition in vivo at 50 mg/kg: 50 mg/kg oral, 1 hour before challenge (TABLE 2). As for the experimental part: Effect on homologous passive cutaneous anaphylaxis (PCA) reaction in rats.
This experimental animal model is caused by immediate type allergic reaction namely, antigen-antibody reaction. In the following, the method of this pharmacological test will be explained.
Method: Male wistar rats (9 weeks old) were intradermally administered 0.05 ml of anti-serum against dinitrophenylated ascaris (DNP-As) into two sites on the shaved dorsal skin. 48 hours later, 7-glycosyloxybenzopyran derivatives (test compounds) suspended in 0.5% sodium carboxymethylcellulose (CMCNa) were given orally at a dose of 50 mg/kg to the animals. One hour after administration of Test compounds, the animals were induced anaphylaxis by injection of saline (1 ml) dissolving 5 mg of Evans Blue and 1 mg of Trinitrophenylated ascaris (TNP-As) into the tail vein of the animals. 30 minutes after induction of anaphylaxis, animals were anesthetized by ether and killed by bleeding, and were flayed dorsal skin. The determination of extravasated dye was performed according to the method of Katayama et al. (Microbiol. Immunol., Vol.22, P 89-101, 1978). As vehicle control group, only 0.5% CMCNa solution was administered orally, and as positive control group, Tranilast suspended in 0.5% CMCNa was administered orally at a dose of 100 mg/kg to the animals with the same method as the test compounds groups. Each experimental group consisted of 5 rats. [formula]

[4] abbreviates: Mus musculus, po, 24 h, read-out: Inhibition (%) against the increase of ear thickness.

We go through 23 compounds from patent US5580552A, “7-glycosyloxybenzopyran derivative and antiallergic agent containing the derivative as active ingredient” (priority 1994, dated 1996).

With `CCCCCCCCCCCCOc1c(O)c(=O)oc2cc(O[C@@H]3O[C@H](CO)[C@@H](O)[C@H](O)[C@H]3O)ccc12` [compound 155], in experiment [1], the “Inhibition (%) against the increase of ear thickness” value came out at 40.9%. The “Inhibition (%) of the airway resistance” value in experiment [2] worked out at 57.6%. In addition, the “Inhibition (%) of PCA reaction” value in experiment [3] came to 42.9%.
`CCCCCCCCOc1c(O)c2ccc(O[C@@H]3O[C@H](CO)[C@H](O)[C@H](O)[C@H]3O)cc2oc1=O` [compound 88]: the inhibition in vivo at 50 mg/kg in experiment [1] (setting [4]) came to 66.8%; in experiment [2] (Cavia porcellus, 0.5 h) it was 80.2%; in experiment [3] (Rattus norvegicus, po, 0.5 h) it was 61.5%.
On to `COc1ccc(/C=C/C(=O)Nc2ccccc2C(=O)O)cc1OC` [Tranilast, reference compound], for which the inhibition in vivo at 100 mg/kg in experiment [1] (Mus musculus, po, 24 h, positive control Tranilast, 100 mg/kg oral, read-out: Inhibition (%) against the increase of ear thickness) is 4.3%; in experiment [3] (Rattus norvegicus, po, 0.5 h, positive control, 100 mg/kg oral (TABLE 2)) it was 54.6%. Further, the “inhibition of delayed type hypersensitization” value in experiment [1] (Tranilast, 100 mg/kg oral) is “did not inhibit delayed type hypersensitization”.
With `CC(C)Oc1c(O)c2ccc(O[C@@H]3O[C@H](CO)[C@H](O)[C@H](O)[C@H]3O)cc2oc1=O` [compound 91], the inhibition in vivo at 50 mg/kg in experiment [1] (setting [4]) was 59.3%; in experiment [2] (Cavia porcellus, 0.5 h), 69.5%; in experiment [3] (Rattus norvegicus, po, 0.5 h), 55.5%.
As for `CCCCCCCCCCOc1c(O)c(=O)oc2cc(O[C@H]3O[C@H](CO)[C@@H](O)[C@H](O)[C@@H]3O)ccc12` [compound 133], the inhibition in vivo at 50 mg/kg worked out at 41.4% in experiment [1] (setting [4]); 43.2% in experiment [2] (Cavia porcellus, 0.5 h); 42.3% in experiment [3] (Rattus norvegicus, po, 0.5 h).
`CCCCCCCCOc1c(O)c2ccc(O[C@@H]3O[C@H](CO)[C@@H](O)[C@H](O)[C@H]3O)cc2oc1=O` [compound 39]: the inhibition in vivo at 50 mg/kg in experiment [1] (setting [4]) was determined as 65.1%; in experiment [2] (Cavia porcellus, 0.5 h) it was 77.8%; in experiment [3] (Rattus norvegicus, po, 0.5 h), 62.2%.
For `CC(C)Oc1c(O)c(=O)oc2cc(O[C@@H]3O[C@H](CO)[C@@H](O)[C@H](O)[C@H]3O)ccc12` [compound 113] the same measures were 45.5%, 56.6% and 40.3%.
Regarding `CCCCOc1c(O)c(=O)oc2cc(O[C@@H]3O[C@H](CO)[C@H](O)[C@H](O)[C@H]3O)ccc12` [compound 18, 3-hydroxy-4-butoxy-7-(β-D-galactopyranosyloxy)-2H-1-benzopyran-2-one], the inhibition in vivo at 50 mg/kg in experiment [1] (setting [4]) came to 40.2%; in experiment [2] (Cavia porcellus, 0.5 h) it was 52.3%; in experiment [3] (Rattus norvegicus, po, 0.5 h), 42.5%.
Consider `CC(C)Oc1c(O)c(=O)oc2cc(O[C@@H]3O[C@H](CO)[C@@H](O)[C@H](O)[C@H]3O)ccc12` [compound 156], for which the “Inhibition (%) against the increase of ear thickness” value in experiment [1] turned out to be 43.2%. The “Inhibition (%) of the airway resistance” value in experiment [2] is on record as 48.2%. Moreover, in experiment [3], the “Inhibition (%) of PCA reaction” value is given as 42.1%.
Regarding `O=c1oc2cc(O[C@@H]3O[C@H](CO)[C@@H](O)[C@H](O)[C@H]3O)ccc2c(O)c1O` [compound 108], the inhibition in vivo at 50 mg/kg in experiment [1] (setting [4]) came to 42.4%; in experiment [2] (Cavia porcellus, 0.5 h), 50.1%; in experiment [3] (Rattus norvegicus, po, 0.5 h), 45.3%.
As to `CCCCCCCCCCOc1c(O)c2ccc(O[C@@H]3O[C@H](CO)[C@@H](O)[C@H](O)[C@H]3O)cc2oc1=O` [compound 40], the inhibition in vivo at 50 mg/kg in experiment [1] (setting [4]) worked out at 62.1%; in experiment [2] (Cavia porcellus, 0.5 h), 73.1%; in experiment [3] (Rattus norvegicus, po, 0.5 h), 57.3%.
Regarding `O=c1oc2cc(O[C@@H]3O[C@H](CO)[C@@H](O)[C@H](O)[C@H]3O)ccc2c(O)c1OCc1ccccc1` [compound 47], the inhibition in vivo at 50 mg/kg in experiment [1] (setting [4]) was 51.9%; in experiment [2] (Cavia porcellus, 0.5 h), 59.1%; in experiment [3] (Rattus norvegicus, po, 0.5 h) it was 52.1%.
In the case of `CCCCCCOc1c(O)c2ccc(O[C@H]3O[C@H](CO)[C@@H](O)[C@H](O)[C@@H]3O)cc2oc1=O` [compound 63], the inhibition in vivo at 50 mg/kg in experiment [1] (setting [4]) is 53.1%; in experiment [2] (Cavia porcellus, 0.5 h), 53.2%; in experiment [3] (Rattus norvegicus, po, 0.5 h) it was 55.7%.
Regarding `CCCCOc1c(O)c2ccc(O[C@@H]3O[C@H](CO)[C@H](O)[C@H](O)[C@H]3O)cc2oc1=O` [compound 86], the inhibition in vivo at 50 mg/kg in experiment [1] (setting [4]) turned out to be 59.4%; in experiment [2] (Cavia porcellus, 0.5 h), 73.2%; in experiment [3] (Rattus norvegicus, po, 0.5 h), 56.4%.
Consider `CCCCCCCCOc1c(OC(C)=O)c(=O)oc2cc(O[C@@H]3O[C@H](COC(C)=O)[C@@H](OC(C)=O)[C@H](OC(C)=O)[C@H]3OC(C)=O)ccc12` [compound 16, 3-acetoxy-4-octyloxy-7-(tetra-O-acetyl-β-D-glucopyranosyloxy)-2H-1-benzopyran-2-one], for which the inhibition in vivo at 50 mg/kg in experiment [1] (setting [4]) turned out to be 43.5%; in experiment [2] (Cavia porcellus, 0.5 h), 40.2%; in experiment [3] (Rattus norvegicus, po, 0.5 h) it was 42.3%.
For `CC(C)=CCC/C(C)=C/COc1c(O)c(=O)oc2cc(O[C@@H]3O[C@H](CO)[C@@H](O)[C@H](O)[C@H]3O)ccc12` [compound 117] the same measures were 42.3%, 49.4% and 40.3%.
Turning to `COc1c(O)c2ccc(O[C@H]3O[C@H](CO)[C@@H](O)[C@H](O)[C@@H]3O)cc2oc1=O` [compound 8, 3-methoxy-4-hydroxy-7-(α-D-mannopyranosyloxy)-2H-1-benzopyran-2-one], the inhibition in vivo at 50 mg/kg in experiment [1] (setting [4]) stood at 50.3%; in experiment [2] (Cavia porcellus, 0.5 h) it was 59.2%; in experiment [3] (Rattus norvegicus, po, 0.5 h) it was 49.2%.
`CCCCCCOc1c(O)c2ccc(O[C@@H]3O[C@H](CO)[C@@H](O)[C@H](O)[C@H]3O)cc2oc1=O` [compound 38]: the inhibition in vivo at 50 mg/kg in experiment [1] (setting [4]) is 63.7%; in experiment [2] (Cavia porcellus, 0.5 h), 75.5%; in experiment [3] (Rattus norvegicus, po, 0.5 h), 59.3%.
Consider `C=COc1c(O)c(=O)oc2cc(O[C@H]3O[C@H](CO)[C@@H](O)[C@H](O)[C@@H]3O)ccc12` [compound 137], for which the inhibition in vivo at 50 mg/kg was 43.5% in experiment [1] (setting [4]); 45.4% in experiment [2] (Cavia porcellus, 0.5 h); 41.7% in experiment [3] (Rattus norvegicus, po, 0.5 h).
Regarding `CCC=CCCOc1c(O)c2ccc(O[C@H]3O[C@H](CO)[C@@H](O)[C@H](O)[C@@H]3O)cc2oc1=O` [compound 70], the inhibition in vivo at 50 mg/kg in experiment [1] (setting [4]) was found to be 52.1%; in experiment [2] (Cavia porcellus, 0.5 h) it was 65.6%; in experiment [3] (Rattus norvegicus, po, 0.5 h), 51.3%.
Turning to `CC(C)=CCC/C(C)=C/COc1c(O)c2ccc(O[C@H]3O[C@H](CO)[C@@H](O)[C@H](O)[C@@H]3O)cc2oc1=O` [compound 71], the inhibition in vivo at 50 mg/kg in experiment [1] (setting [4]) is 47.4%; in experiment [2] (Cavia porcellus, 0.5 h), 63.2%; in experiment [3] (Rattus norvegicus, po, 0.5 h) it was 49.8%.
`O=C(O)c1cc(=O)c2c(OCC(O)COc3cccc4oc(C(=O)O)cc(=O)c34)cccc2o1` [DSCG, Disodium Cromoglicate, reference compound] displayed an inhibition in vivo at 20 mg/kg in experiment [2] (Cavia porcellus, iv, 0.5 h, positive control DSCG, 20 mg/kg into the vein (TABLE 6)) of 51.2%.
Consider `C[C@]12C=CC(=O)C=C1CC[C@@H]1[C@@H]2[C@@H](O)C[C@@]2(C)[C@H]1CC[C@]2(O)C(=O)CO` [Prednisolone, reference compound], for which, in experiment [1] (setting [4]), the inhibition in vivo at 10 mg/kg came out at 63.7%.
